Measured values published in the SangsterLogP compilation.

assay: method code TLC index, from DOI: 10.1016/0223-5234(96)88245-6; conditions: pH 7.4

| SMILES | logD |
| --- | --- |
| CCOC(=O)C1=C(C)NC(C)=C(C(=O)OC)C1c1cc(F)cc(F)c1 (stereo not drawn) | 1.46 |
| COC(=O)C1=C(C)NC(C)=C(C(=O)OC)C1c1ccc(F)c(Br)c1 | 1.48 |
| COC(=O)C1=C(C)NC(C)=C(C(=O)OCCOc2ccccc2)C1c1cc(F)cc(F)c1 (stereo not drawn) | 3.08 |
| COC(=O)C1=C(C)NC(C)=C(C(=O)OC)C1c1cc(F)cc(F)c1 | 1.15 |
| COC(=O)C1=C(C)NC(C)=C(C(=O)OC)C1c1ccc(F)cc1 | 0.82 |

Now from value to molecule:

| logD | SMILES |
| --- | --- |
| 1.6 | CCOC(=O)C1=C(C)NC(C)=C(C(=O)OCC)C1c1cccc([N+](=O)[O-])c1 |
| 2.09 | CCOC(=O)C1=C(C)NC(C)=C(C(=O)OCC)C1c1cc(F)cc(F)c1 |
| 1.66 | CCOC(=O)C1=C(C)NC(C)=C(C(=O)OCC)C1c1ccc(F)cc1 |
